The values below come from US20240043427A1 (Gilead Sciences, Inc., priority 2020, published 2024).

Structures are written as SMILES. pIC50: −log10 of the molar value.

CD73, sequence (P21589 27-574): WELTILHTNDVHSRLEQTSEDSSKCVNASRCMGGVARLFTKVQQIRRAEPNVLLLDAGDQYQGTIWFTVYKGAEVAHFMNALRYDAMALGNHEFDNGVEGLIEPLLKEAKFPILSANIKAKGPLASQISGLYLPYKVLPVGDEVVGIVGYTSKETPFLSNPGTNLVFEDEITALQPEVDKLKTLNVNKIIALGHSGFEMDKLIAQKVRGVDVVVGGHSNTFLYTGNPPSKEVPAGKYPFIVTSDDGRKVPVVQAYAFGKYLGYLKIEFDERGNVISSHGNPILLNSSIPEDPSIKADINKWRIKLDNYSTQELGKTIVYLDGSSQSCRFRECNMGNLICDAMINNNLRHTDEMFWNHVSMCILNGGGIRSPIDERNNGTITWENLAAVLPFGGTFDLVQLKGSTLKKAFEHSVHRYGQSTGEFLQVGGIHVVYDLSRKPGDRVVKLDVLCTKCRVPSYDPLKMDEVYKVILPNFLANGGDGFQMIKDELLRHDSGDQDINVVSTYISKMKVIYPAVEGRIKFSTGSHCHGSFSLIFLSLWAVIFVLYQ

The experiment addresses CD73 (Homo sapiens (Human), UniProt P21589). It is filed as biochemical. Particulars: 1 mM NaH2PO4 in enzyme buffer, CD73 0.3 nM, AMP 15 uM.
Consider `O=C(c1ccc([C@H]2C[C@@H]2c2cc(-c3c[nH]c(=O)[nH]c3=O)nn3ccnc23)cc1)N1CCC1` (racemic) [Example 289, 5-(8-((1S,2S)-2-(4-(azetidine-1-carbonyl)phenyl)cyclopropyl)imidazo[1,2-b]pyridazin-6-yl)pyrimidine-2,4(1H,3H)-dione], for which the pIC50 (commonly the IC50 on a negative log10 scale, so that one unit is a factor of ten) was 8.64.

`CC1CN(C(=O)c2ccc([C@H]3C[C@@H]3c3cc(-c4c[nH]c(=O)[nH]c4=O)nn4ccnc34)cc2)C1` (racemic) [Example 290, 5-(8-((1S,2S)-2-(4-(3-methylazetidine-1-carbonyl)phenyl)cyclopropyl)imidazo[1,2-b]pyridazin-6-yl)pyrimidine-2,4(1H,3H)-dione] had a pIC50 of 8.46. For the compound `O=C(c1ccc([C@H]2C[C@@H]2c2cc(-c3c[nH]c(=O)[nH]c3=O)nn3ccnc23)cc1)N1CC(C(F)(F)F)C1` (racemic) [Example 291, 5-(8-((1S,2S)-2-(4-(3-(trifluoromethyl)azetidine-1-carbonyl)phenyl)cyclopropyl)imidazo[1,2-b]pyridazin-6-yl)pyrimidine-2,4(1H,3H)-dione], the pIC50 was 8.49. Compound `O=C(c1ccc([C@H]2C[C@@H]2c2cc(-c3c[nH]c(=O)[nH]c3=O)nn3ccnc23)cc1)N1CC(F)(F)C1` (racemic) [Example 292, 5-(8-((1S,2S)-2-(4-(3,3-difluoroazetidine-1-carbonyl)phenyl)cyclopropyl)imidazo[1,2-b]pyridazin-6-yl)pyrimidine-2,4(1H,3H)-dione] showed a pIC50 of 8.68. With `CC1(C)CN(C(=O)c2ccc([C@H]3C[C@@H]3c3cc(-c4c[nH]c(=O)[nH]c4=O)nn4ccnc34)cc2)C1` (racemic) [Example 293, 5-(8-((1S,2S)-2-(4-(3,3-dimethylazetidine-1-carbonyl)phenyl)cyclopropyl)imidazo[1,2-b]pyridazin-6-yl)pyrimidine-2,4(1H,3H)-dione] the figure was 8.32. For the compound `O=C(c1cccc([C@H]2C[C@@H]2c2cc(-c3c[nH]c(=O)[nH]c3=O)nn3ccnc23)c1)N1CCC1` (racemic) [Example 294, 5-(8-((1S,2S)-2-(3-(azetidine-1-carbonyl)phenyl)cyclopropyl)imidazo[1,2-b]pyridazin-6-yl)pyrimidine-2,4(1H,3H)-dione], the pIC50 was 8.99. Compound `CC1CN(C(=O)c2cccc([C@H]3C[C@@H]3c3cc(-c4c[nH]c(=O)[nH]c4=O)nn4ccnc34)c2)C1` (racemic) [Example 295, 5-(8-((1S,2S)-2-(3-(3-methylazetidine-1-carbonyl)phenyl)cyclopropyl)imidazo[1,2-b]pyridazin-6-yl)pyrimidine-2,4(1H,3H)-dione] had a pIC50 of 8.72. Compared with the last compound, the pIC50 is 0.27 log units lower. `O=C(c1cccc([C@H]2C[C@@H]2c2cc(-c3c[nH]c(=O)[nH]c3=O)nn3ccnc23)c1)N1CC(C(F)(F)F)C1` (racemic) [Example 296, 5-(8-((1S,2S)-2-(3-(3-(trifluoromethyl)azetidine-1-carbonyl)phenyl)cyclopropyl)imidazo[1,2-b]pyridazin-6-yl)pyrimidine-2,4(1H,3H)-dione] had a negative-log IC50 (pIC50) of 8.67.

Turning to `O=C(c1cccc([C@H]2C[C@@H]2c2cc(-c3c[nH]c(=O)[nH]c3=O)nn3ccnc23)c1)N1CC(F)(F)C1` (racemic) [Example 297, 5-(8-((1S,2S)-2-(3-(3,3-difluoroazetidine-1-carbonyl)phenyl)cyclopropyl)imidazo[1,2-b]pyridazin-6-yl)pyrimidine-2,4(1H,3H)-dione], the pIC50 was 8.82. With `CC1(C)CN(C(=O)c2cccc([C@H]3C[C@@H]3c3cc(-c4c[nH]c(=O)[nH]c4=O)nn4ccnc34)c2)C1` (racemic) [Example 298, 5-(8-((1S,2S)-2-(3-(3,3-dimethylazetidine-1-carbonyl)phenyl)cyclopropyl)imidazo[1,2-b]pyridazin-6-yl)pyrimidine-2,4(1H,3H)-dione], the pIC50 was 8.42. On to `O=C(c1ccc([C@H]2C[C@@H]2c2cc(-c3c[nH]c(=O)[nH]c3=O)nn3ccnc23)cc1)N1C[C@@H](F)[C@H](F)C1` (racemic) [Example 299, 5-(8-((1S,2S)-2-(4-((3R,4R)-3,4-difluoropyrrolidine-1-carbonyl)phenyl)cyclopropyl)imidazo[1,2-b]pyridazin-6-yl)pyrimidine-2,4(1H,3H)-dione], for which the pIC50 was 8.11.

In turn, `O=C(c1cccc([C@H]2C[C@@H]2c2cc(-c3c[nH]c(=O)[nH]c3=O)nn3ccnc23)c1)N1C[C@@H](F)[C@H](F)C1` (racemic) [Example 300, 5-(8-((1S,2S)-2-(3-((3R,4R)-3,4-difluoropyrrolidine-1-carbonyl)phenyl)cyclopropyl)imidazo[1,2-b]pyridazin-6-yl)pyrimidine-2,4(1H,3H)-dione] gave a pIC50 of 8.74. Compound `O=C(c1ccc([C@H]2C[C@@H]2c2cc(-c3c[nH]c(=O)[nH]c3=O)nn3ccnc23)cc1)N1C[C@@H](F)[C@@H](F)C1` (racemic) [Example 301, 5-(8-((1S,2S)-2-(4-((3S,4R)-3,4-difluoropyrrolidine-1-carbonyl)phenyl)cyclopropyl)imidazo[1,2-b]pyridazin-6-yl)pyrimidine-2,4(1H,3H)-dione] gave a pIC50 of 8.35. With `O=C(c1cccc([C@H]2C[C@@H]2c2cc(-c3c[nH]c(=O)[nH]c3=O)nn3ccnc23)c1)N1C[C@@H](F)[C@@H](F)C1` (racemic) [Example 302, 5-(8-((1S,2S)-2-(3-((3S,4R)-3,4-difluoropyrrolidine-1-carbonyl)phenyl)cyclopropyl)imidazo[1,2-b]pyridazin-6-yl)pyrimidine-2,4(1H,3H)-dione] the figure was 8.51; with `O=C(c1ccc([C@H]2C[C@@H]2c2cc(-c3c[nH]c(=O)[nH]c3=O)nn3ccnc23)cc1)N1CC(F)(F)C(F)(F)C1` (racemic) [Example 303, 5-(8-((1S,2S)-2-(4-(3,3,4,4-tetrafluoropyrrolidine-1-carbonyl)phenyl)cyclopropyl)imidazo[1,2-b]pyridazin-6-yl)pyrimidine-2,4(1H,3H)-dione], 8.11.

`O=C(c1cccc([C@H]2C[C@@H]2c2cc(-c3c[nH]c(=O)[nH]c3=O)nn3ccnc23)c1)N1CC(F)(F)C(F)(F)C1` (racemic) [Example 304, 5-(8-((1S,2S)-2-(3-(3,3,4,4-tetrafluoropyrrolidine-1-carbonyl)phenyl)cyclopropyl)imidazo[1,2-b]pyridazin-6-yl)pyrimidine-2,4(1H,3H)-dione] had a pIC50 of 8.44. With `O=C(c1ccc([C@H]2C[C@@H]2c2cc(-c3c[nH]c(=O)[nH]c3=O)nn3ccnc23)cc1)N1CCC(F)(F)C1` (racemic) [Example 305, 5-(8-((1S,2S)-2-(4-(3,3-difluoropyrrolidine-1-carbonyl)phenyl)cyclopropyl)imidazo[1,2-b]pyridazin-6-yl)pyrimidine-2,4(1H,3H)-dione], the pIC50 is 8.32. As for `O=C(c1cccc([C@H]2C[C@@H]2c2cc(-c3c[nH]c(=O)[nH]c3=O)nn3ccnc23)c1)N1CCC(F)(F)C1` (racemic) [Example 306, 5-(8-((1S,2S)-2-(3-(3,3-difluoropyrrolidine-1-carbonyl)phenyl)cyclopropyl)imidazo[1,2-b]pyridazin-6-yl)pyrimidine-2,4(1H,3H)-dione], the pIC50 was 8.78. With `CC1(C)CCN(C(=O)c2ccc([C@H]3C[C@@H]3c3cc(-c4c[nH]c(=O)[nH]c4=O)nn4ccnc34)cc2)C1` (racemic) [Example 307, 5-(8-((1S,2S)-2-(4-(3,3-dimethylpyrrolidine-1-carbonyl)phenyl)cyclopropyl)imidazo[1,2-b]pyridazin-6-yl)pyrimidine-2,4(1H,3H)-dione] the figure was 7.79.

In the case of `CC1(C)CCN(C(=O)c2cccc([C@H]3C[C@@H]3c3cc(-c4c[nH]c(=O)[nH]c4=O)nn4ccnc34)c2)C1` (racemic) [Example 308, 5-(8-((1S,2S)-2-(3-(3,3-dimethylpyrrolidine-1-carbonyl)phenyl)cyclopropyl)imidazo[1,2-b]pyridazin-6-yl)pyrimidine-2,4(1H,3H)-dione], the pIC50 is 8.26. Compared with the last compound, the pIC50 is 0.47 log units higher. The figure for `O=c1[nH]cc(-c2cc([C@H]3C[C@@H]3c3ccccc3OC(F)(F)F)c3nccn3n2)c(=O)[nH]1` (racemic) [Example 309, 5-(8-((1S,2S)-2-(2-(trifluoromethoxy)phenyl)cyclopropyl)imidazo[1,2-b]pyridazin-6-yl)pyrimidine-2,4(1H,3H)-dione] is 7.37; for `N#Cc1cncc([C@H]2C[C@@H]2c2cc(-c3c[nH]c(=O)[nH]c3=O)nn3ccnc23)c1` (racemic) [Example 311, 5-((1S,2S)-2-(6-(2,4-dioxo-1,2,3,4-tetrahydropyrimidin-5-yl)imidazo[1,2-b]pyridazin-8-yl)cyclopropyl)nicotinonitrile] it is 8.33; for `CNC(=O)c1ccc([C@H]2C[C@@H]2c2cc(-c3c[nH]c(=O)[nH]c3=O)nn3c(F)cnc23)cc1` (racemic) [Example 312, 4-((1S,2S)-2-(6-(2,4-dioxo-1,2,3,4-tetrahydropyrimidin-5-yl)-3-fluoroimidazo[1,2-b]pyridazin-8-yl)cyclopropyl)-N-methylbenzamide] it is 8.89. The compound `Cc1nc2cc([C@H]3C[C@@H]3c3cc(-c4c[nH]c(=O)[nH]c4=O)nn4ccnc34)ccc2s1` (racemic) [Example 321, 5-(8-((1S,2S)-2-(2-methylbenzo[d]thiazol-5-yl)cyclopropyl)imidazo[1,2-b]pyridazin-6-yl)pyrimidine-2,4(1H,3H)-dione] showed a pIC50 of 8.95. With `Cn1ncc2ccc([C@H]3C[C@@H]3c3cc(-c4c[nH]c(=O)[nH]c4=O)nn4ccnc34)cc21` (racemic) [Example 326, 5-(8-((1S,2S)-2-(1-methyl-1H-indazol-6-yl)cyclopropyl)imidazo[1,2-b]pyridazin-6-yl)pyrimidine-2,4(1H,3H)-dione], the pIC50 is 9.04. Compound `O=c1[nH]cc(-c2cc([C@H]3C[C@@H]3c3ccc(OC(F)(F)F)cc3)c3nccn3n2)c(=O)[nH]1` (racemic) [Example 359, 5-(8-((1S,2S)-2-(4-(trifluoromethoxy)phenyl)cyclopropyl)imidazo[1,2-b]pyridazin-6-yl)pyrimidine-2,4(1H,3H)-dione] gave a pIC50 of 8.76. This pIC50 lies 0.28 log units lower than the previous one.
